The text below walks through data of US8618107B2 (Gilead Connecticut, Inc., priority 2010, dated 2013).

One assay deals with Btk (Homo sapiens (Human), UniProt Q06187). The assay can be described thus: standard biochemical Btk Kinase Assay (Example 901). Particulars: Table 1.
Sequence of Btk (Q06187 whole entry): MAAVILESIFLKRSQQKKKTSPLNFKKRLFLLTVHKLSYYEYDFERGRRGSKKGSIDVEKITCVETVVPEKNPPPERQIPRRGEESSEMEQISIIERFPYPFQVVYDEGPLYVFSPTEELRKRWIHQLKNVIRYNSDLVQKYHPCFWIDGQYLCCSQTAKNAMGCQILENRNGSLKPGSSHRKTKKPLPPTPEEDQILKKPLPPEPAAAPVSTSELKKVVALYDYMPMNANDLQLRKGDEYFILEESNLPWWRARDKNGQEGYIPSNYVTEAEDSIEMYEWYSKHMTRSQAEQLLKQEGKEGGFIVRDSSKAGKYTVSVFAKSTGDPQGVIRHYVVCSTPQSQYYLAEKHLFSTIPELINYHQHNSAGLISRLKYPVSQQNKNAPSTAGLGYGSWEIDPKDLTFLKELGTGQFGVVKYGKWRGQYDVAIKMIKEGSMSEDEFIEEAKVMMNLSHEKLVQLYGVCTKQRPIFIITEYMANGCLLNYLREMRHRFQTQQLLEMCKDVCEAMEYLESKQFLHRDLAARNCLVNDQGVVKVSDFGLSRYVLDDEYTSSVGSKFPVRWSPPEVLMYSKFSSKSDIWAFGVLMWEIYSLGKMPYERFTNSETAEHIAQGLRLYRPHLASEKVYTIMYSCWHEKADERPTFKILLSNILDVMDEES
Excerpt: Determination of IC50 values can be accomplished using conventional techniques known in the art. In general, an IC50 can be determined by measuring the activity of a given enzyme in the presence of a range of concentrations of the inhibitor under study. The experimentally obtained values of enzyme activity then are plotted against the inhibitor concentrations used. […] Analogously, other inhibitory concentrations can be defined through appropriate determinations of activity.
For orientation: IC50 means the concentration that gives 50% inhibition. Read a high IC50 as a need for much substance. In turn, `Cc1c(-c2cc(Nc3cc4n(n3)CCN(C)C4)c(=O)[nH]n2)cccc1N1CCn2c(cc3c2CCCC3)C1=O` [Example 101] returned an IC50 of 2 nM.

`Cc1c(-c2cc(Nc3cc4n(n3)CCN(C)C4)c(=O)[nH]n2)cccc1N1CCn2c(cc3ccccc32)C1=O` [Example 102] displayed an IC50 of 22.9 nM.

`Cc1c(-c2cc(Nc3cc4n(n3)CCN(C)C4)c(=O)n(C)n2)cccc1N1Cc2c(sc3ccccc23)C1=O` [Example 103, 4-{2-Methyl-3-[1-methyl-5-({5-methyl-4H,5H,6H,7H-pyrazolo[1,5-a]pyrazin-2-yl}amino)-6-oxo-1,6-dihydropyridazin-3-yl]phenyl}-7-thia-4-azatricyclo[6.4.0.0^2,6]dodeca-1(8),2(6),9,11-tetraen-5-one] came in with a 50% inhibitory concentration (IC50) of 3200 nM.

With `Cn1cc(-c2cccc(N3CCn4c(cc5c4CCCC5)C3=O)c2CO)cc(Nc2cc(C3CC3)[nH]n2)c1=O` [Example 106, 2-(3-(5-(5-cyclopropyl-1H-pyrazol-3-ylamino)-1-methyl-6-oxo-1,6-dihydropyridin-3-yl)-2-(hydroxymethyl)phenyl)-3,4,6,7,8,9-hexahydropyrazino[1,2-a]indol-1(2H)-one], it took 1 nM to reach half-maximal inhibition (IC50).

`Cn1cc(-c2cccc(N3CCn4c(cc5c4CCCC5)C3=O)c2CO)cc(Nc2ccc(N3CCOCC3)cn2)c1=O` [Example 107, 2-(2-(hydroxymethyl)-3-(1-methyl-5-(5-morpholinopyridin-2-ylamino)-6-oxo-1,6-dihydropyridin-3-yl)phenyl)-3,4,6,7,8,9-hexahydropyrazino[1,2-a]indol-1(2H)-one]: half-maximal inhibition (IC50) was put at 10.1 nM.

`CC(=O)N1CCn2nc(Nc3cc(-c4cccc(N5CCn6c(cc7c6CCCC7)C5=O)c4CO)cn(C)c3=O)cc2C1` [Example 108, 2-(3-(5-(5-acetyl-4,5,6,7-tetrahydropyrazolo[1,5-a]pyrazin-2-ylamino)-1-methyl-6-oxo-1,6-dihydropyridin-3-yl)-2-(hydroxymethyl)phenyl)-3,4,6,7,8,9-hexahydropyrazino[1,2-a]indol-1(2H)-one] displayed a 50% inhibitory concentration (IC50) of 6.1 nM.

With `Cn1cc(-c2cccc(N3CCc4c(sc5c4CCCC5)C3=O)c2CO)nc(Nc2cnn(CCO)c2)c1=O` [Example 116, 5-[3-(6-{[1-(2-Hydroxyethyl)-1H-pyrazol-4-yl]amino}-4-methyl-5-oxo-4,5-dihydropyrazin-2-yl)-2-(hydroxymethyl)phenyl)-8-thia-5-azatricyclo[7.4.0.02,7]trideca-1(9),2(7)-dien-6-one], 6 nM corresponded to half-maximal inhibition (IC50).

The molecule `Cn1nc(Nc2cc(-c3cccc(N4CCc5c(sc6c5CCCC6)C4=O)c3CO)nn(C)c2=O)cc1C(C)(C)O` [Example 119, 5-[2-(hydroxymethyl)-3-(5-{[5-(2-hydroxypropan-2-yl)-1-methyl-1H-pyrazol-3-yl]amino}-1-methyl-6-oxo-1,6-dihydropyridazin-3-yl)phenyl]-8-thia-5-azatricyclo[7.4.0.02,7]trideca-1(9),2(7)-dien-6-one] gave a half-inhibitory concentration (IC50) of 7 nM.

The assay is the same for the next values; noted with them: Table 2.
The molecule `Cn1cc(-c2cc(F)cc(N3CCn4c(cc5c4CCCC5)C3=O)c2CO)cc(Nc2cc3n(n2)CCOC3)c1=O` [Example 149, 2-(3-(5-(6,7-Dihydro-4H-pyrazolo[5,1-c][1,4]oxazin-2-ylamino)-1-methyl-6-oxo-1,6-dihydropyridin-3-yl)-5-fluoro-2-(hydroxymethyl)phenyl)-3,4,6,7,8,9-hexahydropyrazino[1,2-a]indol-1(2H)-one] displayed a concentration for half-maximal inhibition (IC50) of 5 nM.

Regarding `Cn1cc(-c2cc(F)cc(N3CCn4c(cc5c4CCCC5)C3=O)c2CO)cc(Nc2ccc(C3CCN(C4COC4)CC3)cn2)c1=O` [Example 265, 2-(5-Fluoro-2-(hydroxymethyl)-3-(1-methyl-5-(5-(1-(oxetan-3-yl)piperidin-4-yl)pyridin-2-ylamino)-6-oxo-1,6-dihydropyridin-3-yl)phenyl)-3,4,6,7,8,9-hexahydropyrazino[1,2-a]indol-1(2H)-one], 2.8 nM corresponded to half-maximal inhibition (IC50).

Molecule `CN1CC(c2ccc(Nc3cc(-c4cc(F)cc(N5CCn6c(cc7c6CC(C)(C)C7)C5=O)c4CO)cn(C)c3=O)nc2)C1` [Example 271, 10-[5-Fluoro-2-(hydroxymethyl)-3-(1-methyl-5-{[5-(1-methylazetidin-3-yl)pyridine-2-yl]amino}-6-oxo-1,6-dihydropyridin-3-yl)phenyl]-4,4-dimethyl-1,10-diazatricyclo[6.4.0.0^2,6]dodeca-2(6),7-dien-9-one] had an IC50 of 4.7 nM.

In turn, `Cn1cc(-c2cc(F)cc(N3CCn4c(cc5c4CC(C)(C)C5)C3=O)c2CO)cc(Nc2ccc(CN3CCOCC3)cn2)c1=O` [Example 274, 10-[5-Fluoro-2-(hydroxymethyl)-3-(1-methyl-5-{[5-(morpholin-4-ylmethyl)pyridine-2-yl]amino}-6-oxo-1,6-dihydropyridin-3-yl)phenyl]-4,4-dimethyl-1,10-diazatricyclo[6.4.0.0^2,6]dodeca-2(6),7-dien-9-one] gave a half-inhibitory concentration (IC50) of 2.34 nM.

The molecule `Cc1cc(Nc2cc(-c3cc(F)cc(N4CCn5c(cc6c5CC(C)(C)C6)C4=O)c3CO)cn(C)c2=O)n[nH]1` [Example 276, 10-[5-Fluoro-2-(hydroxymethyl)-3-{1-methyl-5-[(5-methyl-1H-pyrazol-3-yl)amino]-6-oxo-1,6-dihydropyridin-3-yl}phenyl]-4,4-dimethyl-1,10-diazatricyclo[6.4.0.0^2,6]dodeca-2(6),7-dien-9-one] registered an IC50 of 2.2 nM.

In the case of `CN1CCC(c2ccc(Nc3nc(-c4cc(F)cc(N5CCc6c(sc7c6CC(C)(C)C7)C5=O)c4CO)cn(C)c3=O)cc2)CC1` [Example 278, 10-[5-Fluoro-2-(hydroxymethyl)-3-(4-methyl-6-{[4-(1-methylpiperidin-4-yl)phenyl]amino}-5-oxo-4,5-dihydropyrazin-2-yl)phenyl]-4,4-dimethyl-7-thia-10-azatricyclo[6.4.0.0^2,6]dodeca-1(8),2(6)-dien-9-one], the IC50 was found to be 2.6 nM.

As to `CN1CCC(c2ccc(Nc3nc(-c4cc(F)cc(N5CCc6c(sc7c6CCCC7)C5=O)c4CO)cn(C)c3=O)cc2)CC1` [Example 281, 5-[5-Fluoro-2-(hydroxymethyl)-3-(4-methyl-6-{[4-(1-methylpiperidin-4-yl)phenyl]amino}-5-oxo-4,5-dihydropyrazin-2-yl)phenyl]-8-thia-5-azatricyclo[7.4.0.0^2,7]trideca-1(9),2(7)-dien-6-one], the midpoint of inhibition, the IC50, lay at 5.2 nM.

On to `CN1CCC(c2ccc(Nc3nc(-c4cc(F)cc(N5CCn6c(cc7c6CCCC7)C5=O)c4CO)cn(C)c3=O)cc2)CC1` [Example 282, 2-(5-Fluoro-2-(hydroxymethyl)-3-(4-methyl-6-(4-(1-methylpiperidin-4-yl)phenylamino)-5-oxo-4,5-dihydropyrazin-2-yl)phenyl)-3,4,6,7,8,9-hexahydropyrazino[1,2-a]indol-1(2H)-one], for which the IC50 was 4 nM.

Turning to `CN1CCc2cc(Nc3nc(-c4cc(F)cc(N5CCn6c(cc7c6CCCC7)C5=O)c4CO)cn(C)c3=O)ccc2C1` [Example 283, 2-(5-Fluoro-2-(hydroxymethyl)-3-(4-methyl-6-(2-methyl-1,2,3,4-tetrahydroisoquinolin-6-ylamino)-5-oxo-4,5-dihydropyrazin-2-yl)phenyl)-3,4,6,7,8,9-hexahydropyrazino[1,2-a]indol-1(2H)-one], the IC50 is 8.1 nM.

In turn, `CN1CCC[C@@H]1c1ccc(Nc2cc(-c3cc(F)cc(N4CCn5c(cc6c5CC(C)(C)C6)C4=O)c3CO)cn(C)c2=O)nc1` [Example 291, 10-[5-Fluoro-2-(hydroxymethyl)-3-[1-methyl-5-({5-[(2R)-1-methylpyrrolidin-2-yl]pyridine-2-yl}amino)-6-oxo-1,6-dihydropyridin-3-yl]phenyl]-4,4-dimethyl-1,10-diazatricyclo[6.4.0.0^2,6]dodeca-2(6),7-dien-9-one] showed a concentration for half-maximal inhibition (IC50) of 1.74 nM.

`Cn1cc(-c2cc(F)cc(N3CCn4c(cc5c4CC(C)(C)C5)C3=O)c2CO)cc(Nc2ccc3c(n2)CCN(C2COC2)C3)c1=O` [Example 292, 10-[5-Fluoro-2-(hydroxymethyl)-3-(1-methyl-5-{[6-(oxetan-3-yl)-5,6,7,8-tetrahydro-1,6-naphthyridin-2-yl]amino}-6-oxo-1,6-dihydropyridin-3-yl)phenyl]-4,4-dimethyl-1,10-diazatricyclo[6.4.0.0^2,6]dodeca-2(6),7-dien-9-one] gave an IC50 of 11.6 nM.

`CN1CC(Oc2ccc(Nc3cc(-c4cc(F)cc(N5CCn6c(cc7c6CCCC7)C5=O)c4CO)cn(C)c3=O)nc2)C1` [Example 293, 2-(5-Fluoro-2-(hydroxymethyl)-3-(1-methyl-5-(5-(1-methylazetidin-3-yloxy)pyridin-2-ylamino)-6-oxo-1,6-dihydropyridin-3-yl)phenyl)-3,4,6,7,8,9-hexahydropyrazino[1,2-a]indol-1(2H)-one] gave an IC50 of 9.8 nM.

On to `CN1CCC(c2ccc(Nc3nc(-c4cc(F)cc(N5CCn6c(cc7c6CC(C)(C)C7)C5=O)c4CO)cn(C)c3=O)cc2)CC1` [Example 294, 10-[5-Fluoro-2-(hydroxymethyl)-3-(4-methyl-6-{[4-(1-methylpiperidin-4-yl)phenyl]amino}-5-oxo-4,5-dihydropyrazin-2-yl)phenyl]-4,4-dimethyl-1,10-diazatricyclo[6.4.0.0^2,6]dodeca-2(6),7-dien-9-one], for which half-maximal inhibition (IC50) required 16 nM.

As for `CN(C)CCOc1ccc(Nc2cc(-c3cc(F)cc(N4CCn5c(cc6c5CCCC6)C4=O)c3CO)cn(C)c2=O)nc1` [Example 297, 2-(3-(5-(5-(2-(Dimethylamino)ethoxy)pyridin-2-ylamino)-1-methyl-6-oxo-1,6-dihydropyridin-3-yl)-5-fluoro-2-(hydroxymethyl)phenyl)-3,4,6,7,8,9-hexahydropyrazino[1,2-a]indol-1(2H)-one], half-maximal inhibition (IC50) was put at 4.2 nM.

`CN1CC(c2ccc(Nc3nc(-c4cc(F)cc(N5CCc6c(sc7c6CC(C)(C)C7)C5=O)c4CO)cn(C)c3=O)cc2)C1` [Example 298, 10-[5-fluoro-2-(hydroxymethyl)-3-(4-methyl-6-{[4-(1-methylazetidin-3-yl)phenyl]amino}-5-oxopyrazin-2-yl)phenyl]-4,4-dimethyl-7-thia-10-azatricyclo[6.4.0.0^2,6]dodeca-1(8),2(6)-dien-9-one] displayed an IC50 of 5.3 nM.

The molecule `Cn1cc(-c2cccc(N3CCn4c(cc5c4CCCC5)C3=O)c2CO)cc(Nc2ccc(N3CCNCC3)cn2)c1=O` [Example 301, 2-(2-(Hydroxymethyl)-3-(1-methyl-6-oxo-5-(5-(piperazin-1-yl)pyridin-2-ylamino)-1,6-dihydropyridin-3-yl)phenyl)-3,4,6,7,8,9-hexahydropyrazino[1,2-a]indol-1(2H)-one] gave a concentration for half-maximal inhibition (IC50) of 6.1 nM.
